Data set [1] addresses T1, Histone-lysine N-methyltransferase EHMT2 (Homo sapiens) (UniProt Q96KQ7).
T1 sequence (whole entry): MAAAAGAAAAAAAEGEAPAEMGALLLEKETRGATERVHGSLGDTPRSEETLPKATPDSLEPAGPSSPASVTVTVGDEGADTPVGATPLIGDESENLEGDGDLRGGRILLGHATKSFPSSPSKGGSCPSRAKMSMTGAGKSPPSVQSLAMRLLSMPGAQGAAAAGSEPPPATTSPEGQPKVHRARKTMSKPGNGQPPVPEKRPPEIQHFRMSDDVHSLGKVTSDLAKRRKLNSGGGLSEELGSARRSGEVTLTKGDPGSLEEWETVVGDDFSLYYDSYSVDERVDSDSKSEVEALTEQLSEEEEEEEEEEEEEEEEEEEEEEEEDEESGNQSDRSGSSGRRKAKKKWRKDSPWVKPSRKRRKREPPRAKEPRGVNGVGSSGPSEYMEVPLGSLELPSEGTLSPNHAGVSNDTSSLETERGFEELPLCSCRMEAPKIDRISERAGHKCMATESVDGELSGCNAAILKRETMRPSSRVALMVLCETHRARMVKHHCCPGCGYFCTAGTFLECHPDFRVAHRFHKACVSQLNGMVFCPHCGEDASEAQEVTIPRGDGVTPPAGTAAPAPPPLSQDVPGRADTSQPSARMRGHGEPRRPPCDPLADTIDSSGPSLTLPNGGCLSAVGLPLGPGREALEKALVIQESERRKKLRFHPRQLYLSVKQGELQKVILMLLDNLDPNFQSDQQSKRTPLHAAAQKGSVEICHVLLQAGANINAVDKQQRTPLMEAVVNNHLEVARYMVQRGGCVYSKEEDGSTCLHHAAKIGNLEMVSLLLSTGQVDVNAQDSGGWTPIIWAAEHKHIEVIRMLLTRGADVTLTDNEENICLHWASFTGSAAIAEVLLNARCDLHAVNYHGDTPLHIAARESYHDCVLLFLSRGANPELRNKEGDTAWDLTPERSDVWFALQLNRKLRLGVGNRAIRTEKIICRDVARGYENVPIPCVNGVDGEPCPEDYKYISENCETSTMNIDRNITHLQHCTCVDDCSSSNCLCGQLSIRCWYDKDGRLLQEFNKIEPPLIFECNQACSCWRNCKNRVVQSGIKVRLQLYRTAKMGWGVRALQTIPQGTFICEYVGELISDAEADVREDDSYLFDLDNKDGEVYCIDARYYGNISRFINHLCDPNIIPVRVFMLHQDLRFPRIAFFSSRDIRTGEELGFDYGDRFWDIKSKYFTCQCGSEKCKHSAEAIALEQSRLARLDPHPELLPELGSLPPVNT
Briefly: Inhibition of human recombinant EHMT2 G9a using SAM as substrate at 10 uM by time-resolved fluorescence assay relative to control.

Data set [2] deals with T2, N-lysine methyltransferase KMT5A (Homo sapiens) (UniProt Q9NQR1).
T2 sequence (whole entry): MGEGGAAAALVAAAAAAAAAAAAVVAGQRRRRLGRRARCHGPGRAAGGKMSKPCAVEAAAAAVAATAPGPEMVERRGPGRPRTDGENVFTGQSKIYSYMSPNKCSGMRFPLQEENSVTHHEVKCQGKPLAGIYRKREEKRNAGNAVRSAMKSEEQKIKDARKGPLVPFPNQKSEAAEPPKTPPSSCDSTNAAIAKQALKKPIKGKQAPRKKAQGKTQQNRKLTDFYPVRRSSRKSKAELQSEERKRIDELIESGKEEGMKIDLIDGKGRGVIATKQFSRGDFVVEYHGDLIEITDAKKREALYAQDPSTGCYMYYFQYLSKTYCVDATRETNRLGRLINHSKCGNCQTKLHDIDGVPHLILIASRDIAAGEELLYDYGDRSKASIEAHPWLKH
Briefly: Inhibition of SETD8 (unknown origin) using SAM as substrate at 10 uM by time-resolved fluorescence assay relative to control.

Data set [3] in a line: Half life in Sprague-Dawley rat at 30 mg/kg, po administered for 24 hrs by HPLC analysis. It counts as ADME, organism-based. To be noted: in vivo.
Data set [4] in a line: Clearance in Sprague-Dawley rat at 30 mg/kg, po administered for 24 hrs by HPLC analysis. It counts as ADME, organism-based. To be noted: in vivo.
A short description of data set [5]: Apparent volume of distribution in Sprague-Dawley rat at 30 mg/kg, po administered for 24 hrs by HPLC analysis. It is filed as ADME, organism-based. To be noted: in vivo.
Data set [6] is described as follows: AUC (0 to 24 hrs) in Sprague-Dawley rat at 10 mg/kg, iv administered for 12 hrs by HPLC analysis. It is filed as ADME, organism-based. Details: dose 10 mg/kg, time 12 hrs, route iv. To be noted: in vivo.
A short description of data set [7]: Oral bioavailability in Sprague-Dawley rat at 30 mg/kg administered for 24 hrs by HPLC analysis. It counts as ADME, organism-based. As to conditions: in vivo.
The nature of data set [8]: Cytotoxicity against human L02 cells assessed as reduction in cell viability incubated for 72 hrs by MTT assay. It is filed as toxicity, cell-based. (Formazan colour is commonly taken as a measure of viable cells.)
For data set [9], the target named is T1, Histone-lysine N-methyltransferase EHMT2 (Homo sapiens). The data set can be described thus: Binding affinity to recombinant EHMT2 G9a in human RD cells assessed as decrease in […] incubated for 1 hr by DARTS analysis. It counts as cell-based. As to conditions: dose 5-20 µM.
The target in data set [10] is Histone-lysine N-methyltransferase EZH2 (Homo sapiens, UniProt Q15910). The data set can be described thus: Binding affinity to EZH2 in human RD cells assessed as increase in protein thermal stability at 5 uM incubated for 4 hrs by CETSA based Western blot analysis. It is filed as cell-based. In general terms: A western blot detects proteins with antibodies after separation by electrophoresis.

The subject of data set [11] is RD. Briefly: Downregulation of H3K27me3 expression in human RD cells at 5 uM incubated for 6 days by Western blotting analysis. To be noted: time 6.0 day. It is filed as functional, cell-based.
Data set [12] has as its system RD. The data set can be described thus: Antiproliferative activity against human RD cells assessed as reduction in clone formation rate at 5 uM for 1 to 2 weeks with fresh medium replacement for every 2 to 3 days by crystal violet staining based microscopic analysis. It is filed as functional, cell-based. To be noted: time 1-2 weeks.
The nature of data set [13]: Plasma protein binding in Kunming mouse by equilibrium dialysis method. It is filed as ADME, cell-free. As to conditions: read-out: PPB (converted). (In equilibrium dialysis only unbound substance equilibrates across the membrane.)
The subject of data set [14] is RD. The data set can be described thus: Antitumor activity against human RD cells xenografted in BALB/c nude mouse assessed as suppression of tumor growth administered intraperitoneally for 5 consecutive days followed by 2 rest days for 3 weeks. As to conditions: dose 10-20 mg/kg, route ip.
Data set [15] in a line: Toxicity in BALB/c nude mouse xenografted with human RD cells assessed as mortality at 10 to 20 mg/kg, ip administered for 5 consecutive days followed by 2 rest days for 3 weeks. It is filed as organism-based. To be noted: in vivo, 504 h, dose 10-20 mg/kg.
Data set [16] concerns RD. Briefly: Antitumor activity against human RD cells xenografted in BALB/c nude mouse assessed as tumor growth inhibition at 10 to 20 mg/kg, ip administered for 5 consecutive days followed by 2 rest days for 3 weeks. It counts as functional. To be noted: dose 10-20 mg/kg.
A short description of data set [17]: Toxicity in BALB/c nude mouse xenografted with human RD cells assessed as effect on heart viscera index at 10 to 20 mg/kg, ip administered for 5 consecutive days followed by 2 rest days for 3 weeks. It counts as organism-based. To be noted: in vivo, 504 h, dose 10-20 mg/kg.
The nature of data set [18]: Toxicity in BALB/c nude mouse xenografted with human RD cells assessed as effect on lung viscera index at 10 to 20 mg/kg, ip administered for 5 consecutive days followed by 2 rest days for 3 weeks. It counts as organism-based. As to conditions: in vivo, 504 h, dose 10-20 mg/kg.
Data set [19] concerns RD. Briefly: Antitumor activity against human RD-EV cells xenografted in BALB/c nude mouse assessed as tumor growth inhibition at 20 mg/kg, ip administered for 15 days. It is filed as functional. As to conditions: 360 h, time 15 day, read-out: TGI.

A word on the inhibition: it is the change of the read-out against control, counted positive when it falls. As usually defined, the half-life is the time in which the quantity being followed falls by half. Read a high half-life as slow loss. Usually CL/F stands for clearance divided by bioavailability, as obtained after extravascular dosing. One may read the AUC(0-t) as exposure summed from dosing to a finite time, without extrapolation to infinity. Low readings indicate less exposure, high ones more exposure. In general, bioavailability refers to dose-corrected exposure relative to a reference, in per cent. A higher bioavailability goes with good availability. The term CC50 denotes the concentration at which the toxic effect on the cells reaches its halfway point. Broadly, the TGI is the reduction of tumour growth relative to the control group.

Activity calls are given as the source filed them. The rule behind the calls is not given here.

Sequence of Histone-lysine N-methyltransferase EZH2 (Q15910 whole entry, looked up): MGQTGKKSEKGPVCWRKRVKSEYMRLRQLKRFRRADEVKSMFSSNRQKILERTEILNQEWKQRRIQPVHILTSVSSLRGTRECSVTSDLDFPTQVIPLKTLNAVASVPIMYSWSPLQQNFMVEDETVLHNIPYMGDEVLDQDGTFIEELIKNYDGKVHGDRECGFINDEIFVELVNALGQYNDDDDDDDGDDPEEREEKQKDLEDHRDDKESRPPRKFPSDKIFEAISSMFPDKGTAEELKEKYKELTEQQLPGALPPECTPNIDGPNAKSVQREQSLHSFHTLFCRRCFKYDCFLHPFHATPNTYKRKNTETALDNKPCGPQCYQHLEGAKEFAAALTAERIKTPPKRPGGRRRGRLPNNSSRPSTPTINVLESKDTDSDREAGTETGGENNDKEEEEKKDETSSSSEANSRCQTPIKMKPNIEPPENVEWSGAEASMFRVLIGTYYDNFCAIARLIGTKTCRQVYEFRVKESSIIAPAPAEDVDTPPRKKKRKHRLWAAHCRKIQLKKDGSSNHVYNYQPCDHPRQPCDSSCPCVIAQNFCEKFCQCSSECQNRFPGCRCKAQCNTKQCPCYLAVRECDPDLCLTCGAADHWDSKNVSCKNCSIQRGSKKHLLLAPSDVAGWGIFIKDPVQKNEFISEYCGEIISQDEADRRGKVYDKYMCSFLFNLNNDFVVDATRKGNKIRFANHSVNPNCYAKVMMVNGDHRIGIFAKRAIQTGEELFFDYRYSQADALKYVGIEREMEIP

Consider `COc1cc2c(NCc3c(C)cc(C)[nH]c3=O)nc(N3CCC(F)(F)CC3)nc2cc1OCCCN1CCCC1`, for which the figures for the inhibition in data set [1] and in data set [2] were 99.1% and 11.2%, respectively. In data set [3], the half-life was 4.02 h. In data set [4], this molecule had a CL/F of 59.7 mL/min/kg. The Vc in data set [5] came to 17.518 L/kg. In [6], this molecule showed an area under the curve AUC(0-t) at 12 h of 1940 ng·h/mL. This molecule showed a bioavailability in [7] of 92%. In addition, the CC50 at 72 h in data set [8] was > 100 µM. Moreover, the Activity result in [9] was “Dose-Dependent Effect”; with RD [14] it was “Dose-Dependent Effect”; in [15], “Non-Toxic”; in data set [17] it was “Non-Toxic”; in data set [18] it was “Non-Toxic”. The outcome (in data set [10]; with RD [11]; with RD [12]) was Active. Besides, in [13], the fraction unbound is 0.186. In addition, the TGI in the data set on RD [16] stood at 86.6%. The inhibition in vivo at 20 mg/kg in the data set with RD [19] worked out at 55.4%.

The values are drawn from ChEMBL document CHEMBL5338739, “Discovery of Dual Lysine Methyltransferase G9a and EZH2 Inhibitors with In Vivo Efficacy against Malignant Rhabdoid Tumor” (J Med Chem, 2023).
